From patent publication US8288380B2, “Thiophenediamine derivative having urea structure” (Santen Pharmaceutical Co., Ltd., priority 2008, dated 2012)

Experiments:
[1] = system: male Japanese White rabbits; assay: Test for evaluation of intraocular pressure-lowering effect (intracameral administration); assay type: in vivo, rabbit; details: intracameral administration of 20 μL of 1 mM liquid, at 9 hours after administering, versus vehicle control group
Source text: Further, as a result of studying an effect of intraocular pressure reduction of the present compound through intracameral administration using male Japanese white rabbits in order to confirm an actual effect of intraocular pressure reduction of the present compound, it was confirmed that the present compound has an effect of intraocular pressure reduction. […]
One drop of 0.4% oxybuprocaine hydrochloride eye drop was instilled into both eyes of each male Japanese White rabbit to achieve local anesthesia, and thereafter, the intraocular pressure was measured using an applanation tonometer. […] After the lapse of a certain period of time from the administration of the test compound or vehicle, one drop of 0.4% oxybuprocaine hydrochloride eye drop was instilled into the administered eye to achieve local anesthesia, and thereafter, the intraocular pressure was measured using an applanation tonometer.
The intraocular pressure-lowering effect of each test compound was evaluated by calculating an intraocular pressure reduction rate. The intraocular pressure reduction rate (%) was calculated using the following equation. […]

[2] = system: human trabecular meshwork cell line (TM-1 cells); assay: Test for evaluation of effect of morphological change on trabecular meshwork cells (cell shape index, CSI); assay type: cell-based; details: final concentration 10 μM, 24 hours incubation, Control 0.694, lower CSI indicates greater morphological changes
Source text: Further, as a result of studying an effect morphological change of the present compound on trabecular meshwork cells, i.e., an effect of morphological change of the present compound on trabecular meshwork cells in an evaluation system using the cell shape index (hereinafter referred to as “CSI”) reported in The Journal of Clinical Investigation, 103, 1141-1150 (1999) as an index, it was found the present compound has an excellent effect of morphological change on trabecular meshwork cells.
As a method for evaluating a cellular morphological change, an evaluation system using the cell shape index (hereinafter referred to as “CSI”) as an index has been reported in The Journal of Clinical Investigation, 103, 1141-1150 (1999). Therefore, according to the method described in the above document, an effect of morphological change of the present compounds on trabecular meshwork cells was evaluated.
A human trabecular meshwork cell line (hereinafter referred to as “TM-1 cells”) reported in Investigative Ophthalmology & Visual Science, 43, 151-161 (2002) was used.
Culture medium 1: A reagent was prepared by adding fetal bovine serum (10%), L-glutamine (2 mM), amphotericin B ([…]), and gentamicin (25 μg/mL) to Dulbecco's Modified Eagle Medium (hereinafter referred to as “D-MEM”).
Culture medium 2: A reagent was prepared by adding fetal bovine serum (3%), L-glutamine (2 mM), amphotericin B (2.5 μg/mL), and gentamicin (25 μg/mL) were added to D-MEM.
Cell staining liquid: A mixed liquid of Calcein-AM (16 μM) and Hoechst 33342 (40 μM) was prepared by diluting a Calcein-AM solution (cytoplasmic staining reagent, manufactured by Dojindo Laboratories) and a Hoechst 33342 solution (nuclear staining reagent, manufactured by Dojindo Laboratories) with D-MEM containing L-glutamine (2 mM), amphotericin B (2.5 μg/mL), and gentamicin (25 μg/mL).
TM-1 cells subcultured at 37° C. in a 8% carbon dioxide gas atmosphere were treated with a trypsin/EDTA solution (0.05% trypsin and 0.53 mM tetrasodium ethylenediaminetetraacetate) at 24 hours before performing a drug treatment mentioned below and seeded on a 96-well culture plate. The culture medium 1 was used for the subculture of the cells. The culture medium 2 was used for the cell culture after seeding the cells on the plate.
A test compound was dissolved in DMSO, whereby a 5 mM solution was prepared. Then, the resulting solution was diluted with the culture medium 2, whereby a 200 μM test compound solution was prepared.
It has been reported that Y-27632 which is a Rho kinase inhibitor induces a morphological change in trabecular meshwork cells in Investigative Ophthalmology & Visual Science, 42, 137-144 (2001). Therefore, Y-27632 (produced according to the method described in WO 90/05723) was used as a positive control, and dissolved in DMSO in the same manner as the test compound, whereby a 5 mM solution was prepared, and then, the resulting solution was diluted with the culture medium 2, whereby a 200 μM positive control compound solution was prepared.
1) To a 96-well culture plate, a solution of TM-1 cells adjusted to a cell density of […] was added in an amount of 95 μL (1.5×10^4 cells) per well.
2) Incubation was performed at 37° C. in a 8% carbon dioxide gas atmosphere for 24 hours.
3) The test compound solution or positive control compound solution was added in an amount of 5 μL per well (the final concentration of the test compound or positive control compound was 10 μM). As a control, the culture medium 2 containing DMSO (4%) was added in an amount of 5 μL per well.
4) Incubation was performed at 37° C. in a 8% carbon dioxide gas atmosphere for 24 hours.
5) The cell staining liquid was added in an amount of 10 μL per well.
6) Incubation was performed at 37° C. in a 8% carbon dioxide gas atmosphere for 1 hour to stain the cells.
7) A 37% formaldehyde solution was added in an amount of 10 μL per well.
8) Incubation was performed at room temperature for 1 hour to fix the cells. […]

[3] = system: HDAC (HeLa nuclear extract); assay: Test for evaluation of HDAC inhibitory activity (HDAC Fluorimetric Assay/Drug Discovery Kit, Biomol); assay type: biochemical; details: final concentration of the test compound 30 μM, values more than 100% shown as 100%
Method: Using HDAC Fluorimetric Assay/Drug Discovery Kit (manufactured by Biomol), HDAC inhibitory activity of the present compounds was measured according to the protocol included with the kit. The kit contains Buffer, HeLa nuclear extract (includes HDAC), Substrate, Developer and Trichostatin A HDAC inhibitor).
A test compound was dissolved in dimethyl sulfoxide (hereinafter referred to as “DMSO”), whereby a 2 mg/mL solution was prepared. Then, the resulting solution was diluted with Buffer containing 5% DMSO, whereby a 150 μM test compound solution was prepared.
1) To a 384-well culture plate, the test compound solution was added in an amount of 2 μL per well.
2) HeLa nuclear extract was diluted 30-fold with Buffer. The resulting solution was added in an amount of 3 μL per well, and then incubation was performed at 37° C. for 2 hours.
3) Substrate was diluted 500-fold with Buffer. The resulting solution was added in an amount of 5 μL per well (the final concentration of the test compound was 30 μM), and then incubation was performed at 37° C. for 10 minutes.
4) Developer was diluted 20-fold with Buffer and Trichostatin A (2 μM) was added to it. The resulting solution was added in an amount of 10 μL per well, and then incubation was performed at room temperature for 15 minutes.
5) The fluorescence intensity of each well was measured using multilabel counter ARVO (manufactured by Wallac) with excitation at 360 nm and emission at 460 nm.
6) A control data was obtained from the same experiment except that Buffer containing 5% DMSO was added instead of the test compound solution as the above-mentioned procedure from 1) to 5).
7) A blank data was obtained from the same experiment except that Buffer containing 5% DMSO was added instead of the test compound solution and that Buffer was added instead of Hela nuclear extract as the above-mentioned procedure from 1) to 5).
Enzyme inhibitory rate (%) was calculated using the following equation. (Enzyme Inhibitory Rate(%))=100×[1−{(Fluorescence Intensity of Test Compound Solution)−(Florescence Intensity of Blank)}/{(Florescence Intensity of Control)−(Florescence Intensity of Blank)}] (Test Results)

Enzyme Inhibitory Rate (%) [3]	SMILES	Intraocular Pressure Reduction Rate (%) [1]	CSI [2]
100%	CC(C)NC(=O)N(CCN(C)C)Cc1ccc(C(=O)Nc2cscc2N)nc1 [Compound No. 1-43, N-(4-Aminothiophen-3-yl)-5-[1-(2-dimethylaminoethyl)-3-isopropylureidomethyl]pyridine-2-carboxylic acid amide]	7%	0.522
96%	CCCNC(=O)N(CCCCN1CCOCC1)Cc1ccc(C(=O)Nc2cscc2N)nc1 [Compound No. 1-82, N-(4-Aminothiophen-3-yl)-5-[1-[4-(morpholin-4-yl)butyl]-3-propylureidomethyl]pyridine-2-carboxylic acid amide]	25%	0.507
